Experimental data published in US9028845B2, “Chimeric immunomodulatory compounds and methods of using the same-IV” (Dynavax Technologies Corporation, priority 2001, dated 2015).

What was measured:
CD19+ B cells = assay: Human B cell proliferation assay (3H-thymidine incorporation); conditions: purified human B cells, 5 μg/ml, 96 h
human PBMCs = assay: Human PBMC cytokine response assay (IFN-γ and IFN-α in cell-free medium by ELISA), with or without cPLGA; format: cell-based;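 as to IFN-α (pg/ml) mean: 20 µg/mL compound for 24 hours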;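 as to IFN-γ (pg/ml) mean: 20 µg/mL compound for 24 hours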
[1] = mean of Donors 3-4, 20 μg/ml, 24 h
[2] = mean of donors 28185-28188, Table 15

(5′-TCGTTCG-3′-HEG)2-glycerol-HEG-5′-TCGTTCG-3′ [Compound C-158]
B cell proliferation (FIG. 11), in words (CD19+ B cells): induce B cells to proliferate | IFN-α induction (FIG. 10), in words (human PBMCs; PBMCs from 8 donors, 20 μg/ml, 24 h): induce high levels of IFN-α

5′-TCGATTT-3′-HEG-5′-TCGATTT-3′-HEG-5′-TCGATTT-3′ [Compound C-74]
B cell proliferation (FIG. 11), in words (CD19+ B cells): induced moderate levels of B cell proliferation

5′-TCGAACGTTCGA-3′ (SEQ ID NO: 155) (listed as DNA, chemistry not fully specified) [Compound P-17, reference compound]
IFN-α (human PBMCs; Example 58, 0.8 ug/ml, donor 1): 52 pg/mL | IFN-α (human PBMCs; Example 58, 0.8 ug/ml, donor 2): 105 pg/mL | IFN-α (human PBMCs; Example 58, 0.8 ug/ml, donor 3): 52 pg/mL | IFN-α (human PBMCs; Example 58, 0.8 ug/ml, donor 4): 286 pg/mL | IFN-α mean (human PBMCs; Example 58, 0.8 ug/ml, mean of four individuals): 124 pg/mL | IFN-α (human PBMCs; Example 58, 4 ug/ml, donor 1): 9154 pg/mL | IFN-α (human PBMCs; Example 58, 4 ug/ml, donor 2): 10388 pg/mL | IFN-α (human PBMCs; Example 58, 4 ug/ml, donor 3): 531 pg/mL | IFN-α (human PBMCs; Example 58, 4 ug/ml, donor 4): 837 pg/mL | IFN-α mean (human PBMCs; Example 58, 4 ug/ml, mean of four individuals): 5228 pg/mL | IFN-α (human PBMCs; Example 58, 20 ug/ml, donor 1): 1022 pg/mL | IFN-α (human PBMCs; Example 58, 20 ug/ml, donor 2): 1792 pg/mL | IFN-α (human PBMCs; Example 58, 20 ug/ml, donor 3): 52 pg/mL | IFN-α (human PBMCs; Example 58, 20 ug/ml, donor 4): 52 pg/mL | IFN-α mean (human PBMCs; Example 58, 20 ug/ml, mean of four individuals): 729 pg/mL

5′-TCGTCGA-3′-HEG-5′-ACGTTCG-3′-HEG-5′-GGGGGG-3′ [Compound C-49]
IFN-α (human PBMCs; Table 11, donor 28042): 30 pg/mL | IFN-γ (human PBMCs; Table 11, donor 28042): 367 pg/mL | IFN-α (human PBMCs; Table 11, donor 28043): 8 pg/mL | IFN-γ (human PBMCs; Table 11, donor 28043): 433 pg/mL | IFN-α (human PBMCs; Table 11, donor 28044): 100 pg/mL | IFN-γ (human PBMCs; Table 11, donor 28044): 767 pg/mL | IFN-α (human PBMCs; Table 11, donor 28045): 88 pg/mL | IFN-γ (human PBMCs; Table 11, donor 28045): 353 pg/mL | IFN-α mean (human PBMCs; Table 11, mean of donors): 57 pg/mL | IFN-γ mean (human PBMCs; Table 11, mean of donors): 480 pg/mL

5′-GsGs-3′-C3-5′-TCGTGC-3′-C3-5′-ATCGAT-3′-C3-5′-GCACGA-3′-C3-5′-GGsGsGsGsG-3′ (s = phosphorothioate linkages, otherwise linkages are phosphodiester) [Compound C-85]
IFN-α (human PBMCs; Table 11, donor 28042): 0 pg/mL | IFN-γ (human PBMCs; Table 11, donor 28042): 17 pg/mL | IFN-α (human PBMCs; Table 11, donor 28043): 0 pg/mL | IFN-γ (human PBMCs; Table 11, donor 28043): 13 pg/mL | IFN-α (human PBMCs; Table 11, donor 28044): 28 pg/mL | IFN-γ (human PBMCs; Table 11, donor 28044): 315 pg/mL | IFN-α (human PBMCs; Table 11, donor 28045): 24 pg/mL | IFN-γ (human PBMCs; Table 11, donor 28045): 134 pg/mL | IFN-α mean (human PBMCs; Table 11, mean of donors): 13 pg/mL | IFN-γ mean (human PBMCs; Table 11, mean of donors): 120 pg/mL

5′-ATCTCGA-3′ [Compound P-5, reference compound]
IFN-α (pg/ml) Donor 3 (human PBMCs; Donor 3, 20 μg/ml, 24 h): 0 pg/mL | IFN-γ (pg/ml) Donor 3 (human PBMCs; Donor 3, 20 μg/ml, 24 h): 0 pg/mL | IFN-α (pg/ml) Donor 4 (human PBMCs; Donor 4, 20 μg/ml, 24 h): 57 pg/mL | IFN-γ (pg/ml) Donor 4 (human PBMCs; Donor 4, 20 μg/ml, 24 h): 3 pg/mL | IFN-α (pg/ml) mean (human PBMCs; [1]): 29 pg/mL | IFN-γ (pg/ml) mean (human PBMCs; [1]): 2 pg/mL | immunomodulatory activity (IFN-γ / IFN-α secretion), in words (human PBMCs; used alone (no cPLGA)): did not have immunomodulatory activity

Starburst Dendrimer ® -(5′-TGACTGTGAACGTTCGAGATGA-3′)x (X range = 3-16) (SEQ ID NO: 2) (See Ex. 24) [Compound C-102]
IFN-a (human PBMCs; donor 28185, Table 15): 1880 pg/mL | IFN-g (human PBMCs; donor 28185, Table 15): 158 pg/mL | IFN-a (human PBMCs; donor 28186, Table 15): 187 pg/mL | IFN-g (human PBMCs; donor 28186, Table 15): 43 pg/mL | IFN-a (human PBMCs; donor 28187, Table 15): 109 pg/mL | IFN-g (human PBMCs; donor 28187, Table 15): 101 pg/mL | IFN-a (human PBMCs; donor 28188, Table 15): 4 pg/mL | IFN-g (human PBMCs; donor 28188, Table 15): 6 pg/mL | IFN-a (pg/ml) mean (human PBMCs; [2]): 545 pg/mL | IFN-g (pg/ml) mean (human PBMCs; [2]): 77 pg/mL | IFN-a (pg/ml) ×2 (human PBMCs; mean ×2, Table 15): 1090 pg/mL | IFN-g (pg/ml) ×4 (human PBMCs; mean ×4, Table 15): 307 pg/mL | IFN-α induction, in words (human PBMCs; used alone): significantly more IFN-α activity than the P-6 sequence alone
